Source: patent publication US4610982A, “Anti-inflammatory benzo- and thieno-1,2-thiazine-3-carboxamide 1,1-dioxide derivatives, compositions, and method of use therefor” (Pfizer Inc., priority 1985, dated 1986)

Tests used:
lipoxygenase = lipoxygenase inhibition; type: biochemical
[1] = tested on: carrageenin-induced rat foot edema; experiment: carrageenin-induced rat foot edema test; type: in vivo; settings: 32 mg./kg. dose level, oral route; rat hind paw edema three hours after carrageenin injection
Description: (§1) The novel 2-acetoxybenzoyl and ring-substituted α-arylpropionyl oxicam esters of the present invention are all readily adapted to therapeutic use as anti-arthritic agents. […] A. Winter et al., Proc. Soc. Exp. Biol. Med., Vol. 111, p. […] Additionally, hydrolysis of this novel product in vivo simultaneously produces two different anti-inflammatory compounds of known value (viz., piroxicam and ketoprofen). The other oxicam ester compounds of this invention also afford similar results.
In this test, anti-inflammatory activity is determined as the percent inhibition of edema formation in the hind paw of male albino rats (weighing 150-190g.) in response to a sub-plantar injection of carrageenin. The carrageenin is injected as a 1% aqueous suspension (0.015 ml.) one hour after oral administration of the drug, which is normally given in the form of an aqueous solution. Edema formation is then assessed by measuring the volume of the injected paw initially as well as three hours after the carrageenin injection. The increase in volume three hours after carrageenin injection constitutes the individual response. […]

cyclooxygenase = cyclooxygenase (Homo sapiens, UniProt P23219); experiment: cyclooxygenase inhibition; type: biochemical
Description: as §1

cyclooxygenase, sequence (P23219 24-599): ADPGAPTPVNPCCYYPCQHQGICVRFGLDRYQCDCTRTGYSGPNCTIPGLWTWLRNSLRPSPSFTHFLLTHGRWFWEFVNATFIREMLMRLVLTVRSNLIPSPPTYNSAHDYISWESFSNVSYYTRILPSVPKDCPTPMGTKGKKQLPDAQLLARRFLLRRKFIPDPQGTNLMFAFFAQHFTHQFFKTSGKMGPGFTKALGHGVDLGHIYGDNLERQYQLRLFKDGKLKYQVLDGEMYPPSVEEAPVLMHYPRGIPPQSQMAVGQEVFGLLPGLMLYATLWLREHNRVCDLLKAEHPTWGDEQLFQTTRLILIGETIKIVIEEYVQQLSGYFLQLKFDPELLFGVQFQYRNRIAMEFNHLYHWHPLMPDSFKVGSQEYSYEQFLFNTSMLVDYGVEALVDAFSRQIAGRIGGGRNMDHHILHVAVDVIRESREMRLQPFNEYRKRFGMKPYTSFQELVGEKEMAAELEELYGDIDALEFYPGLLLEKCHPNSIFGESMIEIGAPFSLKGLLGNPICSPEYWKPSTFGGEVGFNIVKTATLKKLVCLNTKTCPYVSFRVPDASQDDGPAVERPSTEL

Which IC50 (lipoxygenase) does the source give for `CC(C(=O)OC1=C(C(=O)Nc2ccccn2)N(C)S(=O)(=O)c2ccccc21)c1cccc(C(=O)c2ccccc2)c1` (stereo not drawn) [Example 3, 4-[α-(3-benzoylphenyl)propionyloxy]-2-methyl-N-(2-pyridinyl)-2H-1,2-benzothiazine-3-carboxamide 1,1-dioxide] here?
The IC50 was 20 nM.

And the inhibition in swelling [1]?
The inhibition in swelling was 64%.

What about the IC50 (cyclooxygenase) of the same molecule?
Its IC50 is 10 µM.
